Experiments:
[1] = tested on: Caco-2 cells; test: Caco-2 bidirectional permeability assay; format: in vitro ADME, human
[2] = Caco-2 bidirectional permeability assay; format: in vitro ADME, human; settings: human
[3] = tested on: Mouse scPTZ; test: Subcutaneous pentylenetetrazol; format: in vivo
[4] = tested on: rat hippocampal cultures; test: Neuroprotection from acute glutamate toxicity, CFDA neuronal viability assay; format: cell-based; settings: initial testing of the core compound; assay not specified
[5] = tested on: Mouse MES; test: Maximal electroshock test; format: in vivo; settings: at 100 mg/kg
[6] = tested on: Mouse 6-Hz test; test: 6-Hz seizure test, mouse; format: in vivo; settings: at 100 mg/kg
[7] = tested on: Rat MES; test: Maximal electroshock test; format: in vivo; settings: at 30 mg/kg

Permeability classification [1] | Significant efflux [1] | Papp A→B at 5 µM [2] [×10⁻⁶ cm/s] | Papp B→A at 5 µM [2] [×10⁻⁶ cm/s] | efflux ratio at 5 µM [2] | Mouse scPTZ (s.c. EC50) ([3]; PTZ 85 mg/kg s.c.) [mg/kg] | SMILES | activity in the mouse pentylenetetrazol model ([3]; at 300 mg/kg i.p.) | potency for neuroprotection [4] [nM] | Mouse MES (i.p.), animals protected/tested [5] | Mouse 6-Hz test (i.p.), animals protected/tested [6] | Rat MES (oral), animals protected/tested [7]
Low | Yes | 0.62 | 12.5 | 20.2 | – | C[C@H]1O[C@@H](O[C@H]2[C@@H](O)C[C@H](O[C@H]3[C@@H](O)C[C@H](O[C@H]4CC[C@@]5(C)[C@H](CC[C@@H]6[C@@H]5C[C@@H](O)[C@]5(C)[C@@H](C7=CC(=O)OC7)CC[C@]65O)C4)O[C@@H]3C)O[C@@H]2C)C[C@H](O)[C@@H]1O [Digoxin control, Digoxin] | – | – | – | – | –
High | – | 17.1 | – | – | – | CC(C)NCC(O)COc1cccc2ccccc12 (stereo not shown) [Propranolol control, Propranolol] | – | – | – | – | –
– | – | – | – | – | >300 | NS(=O)(=O)NCC(O)c1ccccc1F (stereo not shown) [AND-171, 2-(2-Fluorophenyl)-2-hydroxyethylsulfamide] | no demonstrated activity | 30 to 100 | 1/3 at 100 mg/kg | 1/4 at 100 mg/kg | 1/4 at 30 mg/kg

Source: paper PMC3377984 (Journal of Molecular Neuroscience, 2012)
